The EC50 is the concentration at which the effect is half-maximal. A lower EC50 goes with an effect from little substance.

The test has as its system human immortalized podocytes inducibly expressing APOL1 G2. Kind of test: APOL1 G2 podocyte cell rescue assay (Example B4). The following applies: differentiated human podocytes, doxycycline-induced APOL1 G2, CellTiter-Glo, geometric mean of at least 2 runs, † = single run. Format: cell-based. In outline: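 Differentiated hTERT-immortalized podocytes (clone D10) with doxycycline-inducible C-terminally HiBiT-tagged APOL1 G2, 6,000 cells/well, treated with doxycycline plus 8-point 3-fold compound series (0.4% DMSO) for 95 h at 37 °C. Viability by CellTiter-Glo luminescence; EC50 as geometric mean of ≥2 runs, each in duplicate.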
For orientation: In ATP-based viability assays light output follows the ATP content of the culture.

The structures appear in SMILES notation.

`C[C@]1(O)C[C@@H](n2c(=O)cnc3cc(OCCN4CCC5(CC4)C(=O)Nc4ccc(Cl)cc45)cnc32)C1` [Compound 358, 5-chloro-1′-[2-({3-oxo-4-[(cis)-3-hydroxy-3-methylcyclobutyl]-3H,4H-pyrido[2,3-b]pyrazin-7-yl}oxy)ethyl]-1,2-dihydrospiro[indole-3,4′-piperidin]-2-one] returned a 50% effective concentration (EC50) (Homo sapiens) of 24 nM. For `CC(O)c1ncc(OCCN2CCC3(CC2)C(=O)Nc2ccc(C#N)cc23)cc1C(F)(F)F` (single isomer, unassigned) [Compound 377, 1′-[2-({6-(1S) or (1R)-1-hydroxyethyl]-5-(trifluoromethyl)pyridin-3-yl}oxy)ethyl]-2-oxo-1,2-dihydrospiro[indole-3,4′-piperidine]-5-carbonitrile], a half-maximal effect (EC50) was put at 24.4 nM. `CC1(O)CN(c2ncc(OCCN3CCC4(CC3)C(=O)Nc3ccc(C(F)F)cc34)cn2)C1` [Compound 395, 5-(difluoromethyl)-1′-(2-{[2-(3-hydroxy-3-methylazetidin-1-yl)pyrimidin-5-yl]oxy}ethyl)-1,2-dihydrospiro[indole-3,4′-piperidin]-2-one] displayed an EC50 (Homo sapiens) of 137 nM. In the case of `CC(O)c1ncc(OCCN2CCC3(CC2)C(=O)Nc2ccc(C#N)cc23)cc1C(F)(F)F` (single isomer, unassigned) [Compound 376, 1′-[2-({6-[(1S) or (1R)-1-hydroxyethyl]-5-(trifluoromethyl)pyridin-3-yl}oxy)ethyl]-2-oxo-1,2-dihydrospiro[indole-3,4′-piperidine]-5-carbonitrile], a half-maximal effect (EC50) was put at 6.21 nM. Regarding `O=C1CCc2cc(OCCN3CCC4(CC3)C(=O)Nc3ccc(Cl)cc34)cnc2N1[C@H]1C[C@H](O)C1` [Compound 267, 5-chloro-1′-[2-({7-oxo-8-[(trans)-3-hydroxycyclobutyl]-5,6,7,8-tetrahydro-1,8-naphthyridin-3-yl}oxy)ethyl]-1,2-dihydrospiro[indole-3,4′-piperidin]-2-one], a half-maximal effect (Homo sapiens) (EC50) was put at 6.63 nM. On the same count and under the same terms, with `CS(=O)(=O)C1(c2ncc(OCCN3CCC4(CC3)C(=O)Nc3ccc(OC(F)F)cc34)cn2)CC1` [Compound 6, 5-(difluoromethoxy)-1′-(2-{[2-(1-methanesulfonylcyclopropyl)pyrimidin-5-yl]oxy}ethyl)-1,2-dihydrospiro[indole-3,4′-piperidin]-2-one] the figure was 47.7 nM. `CS(=O)(=O)C1(c2ccc(OCCN3CCC4(CC3)C(=O)Nc3ccc(Cl)cc34)cc2)CC(O)C1` (stereo not drawn) [Compound 269, 5-chloro-1′-(2-{4-[(cis) or (trans)-3-hydroxy-1-methanesulfonylcyclobutyl]phenoxy}ethyl)-1,2-dihydrospiro[indole-3,4′-piperidin]-2-one] returned an EC50 of 30.4 nM. On the same count and under the same terms, under `CS(=O)(=O)C1(c2ccc(OCCN3CCC4(CC3)C(=O)Nc3ccc(Cl)cc34)cc2)CC(O)C1` (stereo not drawn) [Compound 270, 5-chloro-1′-(2-{4-[(trans) or (cis)-3-hydroxy-1-methanesulfonylcyclobutyl]phenoxy}ethyl)-1,2-dihydrospiro[indole-3,4′-piperidin]-2-one] stands 2.92 nM. Same read-out and setting: under `CC(c1ncc(OCCN2CCC3(CC2)C(=O)Nc2ccc(Cl)cc23)cn1)S(C)(=O)=O` (single isomer, unassigned) [Compound 2, 5-chloro-1′-[2-({2-[(1S) or (1R)-1-methanesulfonylethyl]pyrimidin-5-yl}oxy)ethyl]-1,2-dihydrospiro[indole-3,4′-piperidin]-2-one] stands 10.7 nM. `CS(=O)(=O)C1(c2ncc(OCCN3CCC4(CC3)C(=O)Nc3ccc(C(F)F)cc34)cn2)CC1` [Compound 5, 5-(difluoromethyl)-1′-(2-{[2-(1-methanesulfonylcyclopropyl)pyrimidin-5-yl]oxy}ethyl)-1,2-dihydrospiro[indole-3,4′-piperidin]-2-one] showed a concentration for a half-maximal effect (EC50) (Homo sapiens) of more than 330 nM. The compound `CC(c1ncc(OCCN2CCC3(CC2)C(=O)Nc2ccc(Cl)cc23)cn1)S(C)(=O)=O` (single isomer, unassigned) [Compound 3, 5-chloro-1′-[2-({2-[(1R) or (1S)-1-methanesulfonylethyl]pyrimidin-5-yl}oxy)ethyl]-1,2-dihydrospiro[indole-3,4′-piperidin]-2-one] showed a concentration giving a half-maximal response (EC50) of 23.5 nM.

For the origin of these results see US12344610B2, “APOL1 inhibitors and methods of use” (Maze Therapeutics, Inc., priority 2022, dated 2025).
